Experimental data reported in patent publication US8592161B2, “Mutational profiles in HIV-1 protease correlated with phenotypic drug resistance” (Janssen R&D Ireland, priority 2002, dated 2013).

Legend:
Format in all cases: cell-based
[1] = system: HIV-1 starting strain of Table 4 (no compound, no mutations); assay: In vitro antiviral activity in acutely infected MT4 cells, starting strain; conditions: for EC50: Human immunodeficiency virus 1, starting strain HIV-1, no compound, read-out: median EC50; for median FC (fold change in EC50 as compared to wild type): starting strain HIV-1, no compound
Protocol: (§1) Determination of the antiviral activity of a compound was done as described in Pauwels R. et al. (J Virol Methods 1988; 20(4):309-21). Various concentrations of the test compounds were brought into each well of a flat-bottom microtiter plate. Subsequently, HIV and MT4 cells were added to a final concentration of 200-250 50% cell culture infectious doses (CCID50)/well and 30,000 cells/well, respectively. After 5 days of incubation (37° C., 5% CO2), the cytopathic effect of the replicating virus was determined by the tetrazolium colorimetric MTT method. The dose protecting 50% of the cells from virus cytopathic effect was defined as the EC50, while the dose achieving 90% protection was defined as the EC90.
(§2) MT4-LTR-EGFP cells were infected at a multiplicity of infection (MOI) of 0.01 to 0.001 CCID50/cell in the presence of inhibitor. The starting concentration of the inhibitor was two to tee times the EC50, a suboptimal concentration. The cultures were sub-cultivated and scored microscopically on virus-induced fluorescence and cytopathicity every 3-4 days. The cultures were sub-cultivated in the presence of the same compound concentration until signs of virus replication were observed. The escaping virus was further cultivated in the presence of the same inhibitor concentration in order to enrich the population in resistant variants. If full virus breakthrough was observed the supernatant was collected and stored (new virus strain). Afterwards, the same virus was challenged with a higher compound concentration in order to select variants able to grow in the presence of as high as possible inhibitor concentrations. From the new viruses, a virus stock was grown in the absence of inhibitor.
(§3) In vitro drug selection experiments starting from wild-type HIV-1 under pressure of compound 1, compound 2, and Nelfinavir (NFV) have been performed. Tables 1, 2, 3, 4, and 5 show the genotypic and phenotypic characterization of the selected strains.

[2] = system: HIV-1/LAI strain selected with Compound 1 (100 nM, 188 days), protease R41T K70E; assay: In vitro antiviral activity in acutely infected MT4 cells, selected strain; conditions: for EC50: Human immunodeficiency virus 1, Table 1, strain R41T K70E (Compound 1 100 nM, 188 days), read-out: median EC50; for median FC (fold change in EC50 as compared to wild type): Table 1, strain R41T K70E (Compound 1 100 nM, 188 days)
Protocol: as §1, §2, §3

[3] = system: HIV-1/LAI strain selected with Comp 1 (30 nM, 70 days), protease K70E; assay: as above; conditions: for EC50: Human immunodeficiency virus 1, Table 2, strain K70E (Comp 1 30 nM, 70 days), read-out: median EC50; for median FC (fold change in EC50 as compared to wild type): Table 2, strain K70E (Comp 1 30 nM, 70 days)
Protocol: as §1, §2, §3

[4] = system: HIV-1 strain selected with Comp 1 (40 nM, 175 days), protease R41G V82I; assay: as above; conditions: for EC50: Human immunodeficiency virus 1, Table 4, strain R41G V82I (Comp 1 40 nM, 175 days), read-out: median EC50; for median FC (fold change in EC50 as compared to wild type): Table 4, strain R41G V82I (Comp 1 40 nM, 175 days)
Protocol: as §1, §2, §3

[5] = system: HIV-1/LAI strain selected with Comp 1 (100 nM, 195 days), protease S37N R41S K70E; assay: as above; conditions: for EC50: Human immunodeficiency virus 1, Table 2, strain S37N R41S K70E (Comp 1 100 nM, 195 days), read-out: median EC50; for median FC (fold change in EC50 as compared to wild type): Table 2, strain S37N R41S K70E (Comp 1 100 nM, 195 days)
Protocol: as §1, §2, §3

[6] = system: HIV-1/LAI strain selected with NFV (9000 nM, 140 days), protease L10F D30N R41R/K K45I/K M46I V77I I84V N88D; assay: as above; conditions: for EC50: Human immunodeficiency virus 1, Table 5, strain L10F D30N R41R/K K45I/K M46I V77I I84V N88D (NFV 9000 nM, 140 days), read-out: median EC50; for median FC (fold change in EC50 as compared to wild type): Table 5, strain L10F D30N R41R/K K45I/K M46I V77I I84V N88D (NFV 9000 nM, 140 days)
Protocol: as §1, §2, §3

[7] = system: HIV-1/LAI strain selected with Compound 1 (30 nM, 45 days), protease R41T; assay: as above; conditions: for EC50: Human immunodeficiency virus 1, Table 1, strain R41T (Compound 1 30 nM, 45 days), read-out: median EC50; for median FC (fold change in EC50 as compared to wild type): Table 1, strain R41T (Compound 1 30 nM, 45 days)
Protocol: as §1, §2, §3

[8] = system: HIV-1 strain selected with Comp 1 (40 nM, 161 days), protease R41G V82I; assay: as above; conditions: for EC50: Human immunodeficiency virus 1, Table 4, strain R41G V82I (Comp 1 40 nM, 161 days), read-out: median EC50; for median FC (fold change in EC50 as compared to wild type): Table 4, strain R41G V82I (Comp 1 40 nM, 161 days)
Protocol: as §1, §2, §3

[9] = system: HIV-1/LAI strain selected with NFV (1000 nM, 35 days), protease D30N M46I; assay: as above; conditions: for EC50: Human immunodeficiency virus 1, Table 5, strain D30N M46I (NFV 1000 nM, 35 days), read-out: median EC50; for median FC (fold change in EC50 as compared to wild type): Table 5, strain D30N M46I (NFV 1000 nM, 35 days)
Protocol: as §1, §2, §3

[10] = system: HIV-1/LAI strain selected with Comp 1 (200 nM, 328 days), protease S37N R41S K70E; assay: as above; conditions: for EC50: Human immunodeficiency virus 1, Table 2, strain S37N R41S K70E (Comp 1 200 nM, 328 days), read-out: median EC50; for median FC (fold change in EC50 as compared to wild type): Table 2, strain S37N R41S K70E (Comp 1 200 nM, 328 days)
Protocol: as §1, §2, §3

[11] = system: HIV-1/LAI strain selected with Comp 1 (100 nM, 139 days), protease S37S/N R41R/K K70E; assay: as above; conditions: for EC50: Human immunodeficiency virus 1, Table 2, strain S37S/N R41R/K K70E (Comp 1 100 nM, 139 days), read-out: median EC50; for median FC (fold change in EC50 as compared to wild type): Table 2, strain S37S/N R41R/K K70E (Comp 1 100 nM, 139 days)
Protocol: as §1, §2, §3

[12] = system: HIV-1/LAI strain selected with NFV (9000 nM, 11l days), protease L10F D30N R41R/K K45I/K M46I V77I I84V/I I85V/I N88D; assay: as above; conditions: for EC50: Human immunodeficiency virus 1, Table 5, strain L10F D30N R41R/K K45I/K M46I V77I I84V/I I85V/I N88D (NFV 9000 nM, 11l days), read-out: median EC50; for median FC (fold change in EC50 as compared to wild type): Table 5, strain L10F D30N R41R/K K45I/K M46I V77I I84V/I I85V/I N88D (NFV 9000 nM, 11l days)
Protocol: as §1, §2, §3

[13] = system: HIV-1 strain selected with Comp 1 (20 nM, 94 days), protease R41G/R V82V/I; assay: as above; conditions: for EC50: Human immunodeficiency virus 1, Table 4, strain R41G/R V82V/I (Comp 1 20 nM, 94 days), read-out: median EC50; for median FC (fold change in EC50 as compared to wild type): Table 4, strain R41G/R V82V/I (Comp 1 20 nM, 94 days)
Protocol: as §1, §2, §3

[14] = system: HIV-1/LAI strain selected with Compound 2 (100 nM), protease R41I; Table 3; assay: as above; conditions: Human immunodeficiency virus 1, R41I strain selected with Compound 2 100 nM (head lists 116, 200, 264 days; assignment unclear), read-out: median EC50
Protocol: as §1, §2, §3

SMILES	EC50 [1]	median FC (fold change in EC50 as compared to wild type) [1]	EC50 [2]	median FC (fold change in EC50 as compared to wild type) [2]	EC50 [3]	median FC (fold change in EC50 as compared to wild type) [3]	EC50 [4]	median FC (fold change in EC50 as compared to wild type) [4]	EC50 [5]	median FC (fold change in EC50 as compared to wild type) [5]	EC50 [6]	median FC (fold change in EC50 as compared to wild type) [6]	EC50 [7]	median FC (fold change in EC50 as compared to wild type) [7]	EC50 [8]	median FC (fold change in EC50 as compared to wild type) [8]	EC50 [9]	median FC (fold change in EC50 as compared to wild type) [9]	EC50 [10]	median FC (fold change in EC50 as compared to wild type) [10]	further results
CC(C)CN(C[C@@H](O)[C@H](Cc1ccccc1)NC(=O)O[C@H]1CCOC1)S(=O)(=O)c1ccc(N)cc1 [Amprenavir]	26 nM	1	39 nM	1	56 nM	3	9.4 nM	0	14 nM	1	190 nM	10	38 nM	1	6.6 nM	0	28 nM	1	15 nM	1	EC50 [11]: 24 nM; median FC (fold change in EC50 as compared to wild type) [11]: 1; EC50 [12]: 95 nM; median FC (fold change in EC50 as compared to wild type) [12]: 5; EC50 [13]: 7.3 nM; median FC (fold change in EC50 as compared to wild type) [13]: 0; EC50 [14]: 14 nM
CC(C)(C)NC(=O)[C@@H]1CN(Cc2cccnc2)CCN1C[C@@H](O)C[C@@H](Cc1ccccc1)C(=O)N[C@H]1c2ccccc2C[C@H]1O [Indinavir]	2.4 nM	0	140 nM	5	18 nM	2	3.9 nM	0	9.1 nM	1	28 nM	2	33 nM	1	2.1 nM	0	7.9 nM	1	5.5 nM	0.5	EC50 [11]: 6.3 nM; median FC (fold change in EC50 as compared to wild type) [11]: 1; EC50 [12]: 100 nM; median FC (fold change in EC50 as compared to wild type) [12]: 8; EC50 [13]: 3.1 nM; median FC (fold change in EC50 as compared to wild type) [13]: 0; EC50 [14]: 19 nM
CC(C)(C)NC(=O)[C@@H]1C[C@@H]2CCCC[C@@H]2CN1C[C@@H](O)[C@H](Cc1ccccc1)NC(=O)[C@H](CC(N)=O)NC(=O)c1ccc2ccccc2n1 [Saquinavir]	8.9 nM	2	150 nM	20	6 nM	1	0.8 nM	0	0.9 nM	0.2	34 nM	6	30 nM	4	1 nM	0	1.8 nM	0	4 nM	1	EC50 [11]: 0.7 nM; median FC (fold change in EC50 as compared to wild type) [11]: 0.1; EC50 [12]: 15 nM; median FC (fold change in EC50 as compared to wild type) [12]: 3; EC50 [13]: 0.9 nM; median FC (fold change in EC50 as compared to wild type) [13]: 0
